Consider seven molecules from US5284862A, “Derivatives of 2-carboxyindoles having pharmaceutical activity” (Warner-Lambert Company, priority 1992, dated 1994).

By IC50 is commonly meant the concentration that inhibits the measured activity by half.

For test [1], the target named is T1, strychnine insensitive glycine receptor which is located on the NMDA receptor complex (Rattus norvegicus, UniProt P35439).
T1 construct: from tissue
The test is described as follows: glycine binding assay ([3H]-Gly). The settings on record: for IC50: [3H]-glycine binding; for inhibition at 10 µM: read-out: [3H]-Gly, % Inh. at 10 μM. As for the experimental part: Specifically, the compounds of the present invention have activity as antagonists at the strychnine insensitive glycine receptor which is located on the NMDA receptor complex. As such, the compounds of the present invention are NMDA receptor antagonists. Also, the compounds of the present invention have activity as AMPA and kainate receptor antagonists.
The glycine binding assay is performed essentially as described by W. Frost White, et al, Journal of Neurochemistry 1989;53(2):503-12.

The next test concerns the target AMPA receptor. As to the kind of experiment: AMPA binding assay ([3H]-AMPA). To be noted: [3H]-AMPA binding; unit inferred. From the text:
The AMPA binding assay may also be performed to provide an activity profile for the compounds of the present invention.

The next test relates to cortical neuronal cells. The test is described as follows: glutamate-induced lactate dehydrogenase (LDH) efflux assay. Type of test: cell-based. The settings on record: glutamate exposure 5 minutes; LDH released into the culture medium 1 day after exposure. As for the experimental part: The glutamate-induced lactate dehydrogenase (LDH) efflux assay is also used to measure the activity of the compounds of the present invention. Procedures for evaluating neurotoxicity in cortical neuronal cells by measuring efflux of LDH are carried out similarly as described by J. Y. Koh and D. W. Choi, J. Neurosci. Methods 1987;20:83-90. Only mature ([…] in vitro) cortical cultures were selected for study. Cells were exposed for 5 minutes to a glutamate exposure solution. Compounds tested were added to the glutamate exposure medium. In all experiments the glutamate exposure was removed and fresh buffer was added. Overall neuronal injury was quantitatively assessed by measurement of LDH released into the culture medium 1 day after glutamate exposure (see J. G. Klingman, D. M. Hartley, D. W. Choi, J. Neurosci. Methods 1989;31:47-51) using a 96-well plate reader.
(In general: LDH in the medium is a marker of cell lysis.)

In the case of `O=C(O)/C=C/c1c(C(=O)O)[nH]c2cc(Cl)cc(Cl)c12`, the IC50 worked out at 0.18 µM in test [1], 203 µM at AMPA receptor and 10.2 µM in the test on cortical neuronal cells.
On to `O=C(CCc1c(C(=O)O)[nH]c2cc(Cl)cc(Cl)c12)NS(=O)(=O)c1ccccc1`, for which the half-maximal inhibitory concentration (IC50) worked out at 0.068 µM in test [1], 113 µM on AMPA receptor and 7.8 µM with cortical neuronal cells.
Consider `CS(=O)(=O)NC(=O)CCc1c(C(=O)O)[nH]c2cc(Cl)cc(Cl)c12`, for which the IC50 in test [1] came to 0.543 µM; on AMPA receptor it was 80 µM; with cortical neuronal cells, 21.5 µM.
Turning to `O=C(CCCc1c(C(=O)O)[nH]c2cc(Cl)cc(Cl)c12)NS(=O)(=O)c1ccccc1`, in test [1], the inhibition at 10 µM was 89%. The molecule also yielded a half-maximal inhibitory concentration (IC50) at AMPA receptor of 108 µM.
Consider `[N-]=[N+]=Nc1cccc(S(=O)(=O)NC(=O)CCc2c(C(=O)O)[nH]c3cc(Cl)cc(Cl)c23)c1`, for which the IC50 in test [1] was 0.079 µM; at AMPA receptor, 150 µM; with cortical neuronal cells, 6 µM.
On to `O=C(/C=C/c1c(C(=O)O)[nH]c2cc(Cl)cc(Cl)c12)NS(=O)(=O)c1ccccc1`, for which the inhibition at 10 µM in test [1] is 87%. The molecule further yielded a half-inhibitory concentration (IC50) at AMPA receptor of 122 µM.
The corresponding values for `O=C(/C=C/c1c(C(=O)O)[nH]c2cc(Cl)cc(Cl)c12)NCc1ccccc1` are 84% and 213 µM.
